We go through 1 compound from ChEMBL document CHEMBL6114982, “Structural optimization and characterization of highly potent and selective STAT3 inhibitors for the treatment of triple negative breast cancer” (Eur J Med Chem, 2025).

Data set [1] in a line: Toxicity in female BALB/c nude mouse assessed as effect on kidney at 10 to 20 mg/kg, iv measured after 30 days by H and E staining based analysis. The format is organism-based. To be noted: in vivo, 720 h, dose 10-20 mg/kg, time 30 day.
Data set [2] relates to MDA-MB-231. Kind of data set: Downregulation of N-cadherin expression level in human MDA-MB-231 cells by Western blot analysis. It counts as functional, cell-based.
Data set [3] deals with T1, Signal transducer and activator of transcription 3 (Homo sapiens, UniProt P40763). Put plainly: Inhibition of STAT3 in human MDA-MB-231 cells assessed as upregulation of MCL1 level. It counts as cell-based.
T1 sequence (P40763 whole entry): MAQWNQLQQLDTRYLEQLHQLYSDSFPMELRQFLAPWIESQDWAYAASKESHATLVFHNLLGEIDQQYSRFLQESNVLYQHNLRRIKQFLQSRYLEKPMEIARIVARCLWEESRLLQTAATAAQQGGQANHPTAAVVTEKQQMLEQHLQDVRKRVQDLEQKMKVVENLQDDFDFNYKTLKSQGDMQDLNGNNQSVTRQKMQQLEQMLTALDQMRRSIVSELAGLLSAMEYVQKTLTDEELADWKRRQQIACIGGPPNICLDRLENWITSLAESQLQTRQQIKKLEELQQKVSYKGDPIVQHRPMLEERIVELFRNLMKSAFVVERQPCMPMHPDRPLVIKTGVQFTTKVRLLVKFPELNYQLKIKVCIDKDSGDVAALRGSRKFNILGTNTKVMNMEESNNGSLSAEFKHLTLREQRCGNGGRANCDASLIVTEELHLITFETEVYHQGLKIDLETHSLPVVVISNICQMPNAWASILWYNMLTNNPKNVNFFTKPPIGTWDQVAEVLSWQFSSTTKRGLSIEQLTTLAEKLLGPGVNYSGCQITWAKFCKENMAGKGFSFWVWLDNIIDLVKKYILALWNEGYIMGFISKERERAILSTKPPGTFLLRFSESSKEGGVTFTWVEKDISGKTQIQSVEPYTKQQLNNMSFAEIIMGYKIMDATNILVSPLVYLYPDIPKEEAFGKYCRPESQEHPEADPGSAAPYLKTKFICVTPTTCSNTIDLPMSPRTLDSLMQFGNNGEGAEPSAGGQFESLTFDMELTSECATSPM
The test system of data set [4] is BT-549. Put plainly: Inhibition of cell invasion in human BT-549 cells assessed as decrease in number of invaded cells incubated for 24 hrs by crystal violet staining based inverted microscopic analysis. The format is functional. Conditions: dose 0.05-0.5 µM.
Data set [5] has as its system MDA-MB-231. Kind of data set: Inhibition colony formation in human MDA-MB-231 cells harbouring STAT3 siRNA at 0.1 uM after 14 days by crystal violet staining based analysis. The format is functional, cell-based. Conditions: time 14.0 day.
Data set [6] has as its target T1, Signal transducer and activator of transcription 3. Put plainly: Inhibition of STAT3 phosphorylation at Tyr705 residue in human BT-549 cells at 0.1 uM by Western blot analysis. The format is cell-based. Conditions: time 8-48 hrs.
For data set [7] the target is unchanged. Put plainly: Inhibition of STAT3 phosphorylation in human MDA-MB-231 cells assessed as downregulation of F5 level. The format is cell-based.
In data set [8] the test system is MDA-MB-231. Kind of data set: Inhibition of colony formation in human MDA-MB-231 cells measured after 14 days by soft agar plate cloning assay. Conditions: time 14.0 day. The format is functional, cell-based.
The subject of data set [9] is MDA-MB-231. Kind of data set: Effect on STAT5 phosphorylation level in human MDA-MB-231 cells at 0.05 to 0.5 uM measured after 48 hrs by Western blot analysis. It counts as functional, cell-based. Conditions: dose 0.05-0.5 µM. On the technique in general: A western blot detects proteins with antibodies after separation by electrophoresis.
The subject of data set [10] is BT-549. Put plainly: Downregulation of Bcl-xl level in human BT-549 cells measured after 48 hrs by Western blot analysis. The format is functional, cell-based. Conditions: dose 0.05-0.5 µM.
The test system of data set [11] is MDA-MB-231. Put plainly: Induction of apoptosis in human MDA-MB-231 cells assessed as late apoptotic at 0.1 uM incubated for 48 hrs by Annexin V and PI staining based flow cytometry analysis (reference value: 2.71%). It counts as functional. For orientation: A flow cytometer gives signals particle by particle.
Data set [12] deals with T1, Signal transducer and activator of transcription 3. Kind of data set: Inhibition of STAT3 phosphorylation at Tyr705 residue in human BT-549 cells measured after 8 to 48 hrs by Western blot analysis. The format is cell-based. To be noted: dose 0.1 µM, time 8-48 hrs.

SMILES strings stand for the structures. The source made the active and inactive calls. The rule behind the calls is not given here.

`COc1cccc(C(=O)Nc2sc3c(c2C#N)CCN(C(=O)Nc2ccccc2OC)C3)c1`: the figures for the Activity result (in [1]; with BT-549 [10]; in the data set with MDA-MB-231 [11]) were “Non-toxic”, “Dose-dependent-effect” and 16.08%, respectively. Besides, in the data set on MDA-MB-231 [2], the outcome was Active. Also, the inhibition result (in data set [3]; in [7]; in the data set on MDA-MB-231 [8]) was “Active” in each case. Further, the inhibition entry is “Dose-dependent-effect” with BT-549 [4], “Time-dependent-effect” in data set [6] and “Dose-dependent-effect” in data set [12]. Further, the inhibition result in the data set on MDA-MB-231 [5] is “inactive”. Moreover, the result with MDA-MB-231 [9] was inactive.
